# Results published in patent US10729672B2 (Wyeth LLC, priority 2005, dated 2020).
# Columns and labels:
# Format in all cases: cell-based
# [1] = tested on: BT474 [HER-2+ (amplified); ATCC HTB-20] cells; assay: SRB cell survival / growth inhibition, BT474 cells
# Method: (§1) The combination was tested in three breast cancer cell lines of differing genotypes.
# (§2) Cells from each of these cell lines were incubated in the presence of a range of concentrations ([…]) for each drug. […] Compound dilutions were prepared in the same medium, at 2× final concentration, and 100 μl of the drug dilution was added to the cell-containing wells.
# (§3) Serial dilutions of one compound were prepared in the presence of a fixed dose of a second compound. Alternatively, a checkerboard dilution series was employed. Cells were cultured for three days in the presence of the drugs. Untreated cells were included as controls. The percentage of surviving cells was determined using sulforhodamine B (SRB, Sigma-Aldrich, St Louis, Mo.), a protein binding dye. Cellular protein was precipitated in each well by the addition of 50 μl 50% cold trichloroacetic acid. After 1 hour, the plates were washed extensively in water and dried. SRB dye reagent (0.4% SRB in 1% acetic acid, 80 μl per well) was added and plates were kept at room temperature for ten minutes. […] Cell-associated dye was dissolved in 10 mM Tris (150 μl) and the absorbance was read at 540 nm in a microtiter plate reader. The concentration of compound that caused a fixed percentage inhibition of growth was determined by plotting cell survival (relative to untreated cells) against the compound dose.
# [2] = tested on: MDA-MB-361 [HER-2+ (non-amplified); adenocarcinoma; ATCC HTB 27] cells; assay: SRB cell survival / growth inhibition, MDA-MB-361 cells; conditions: MDA-MB-361, lower levels of HER-2 without amplification
# Method: as §1, §2, §3
# [3] = tested on: MCF-7 [HER-2−, EGFR−; adenocarcinoma; ATCC HTB22] cells; assay: SRB cell survival / growth inhibition, MCF-7 cells; conditions: MCF-7, no HER-2
# Method: as §1, §2, §3
smiles,measurement,setting,value
"CCOc1cc2ncc(C#N)c(Nc3ccc(OCc4ccccn4)c(Cl)c3)c2cc1NC(=O)/C=C/CN(C)C [HKI-272, (E)-N-{4-[3-chloro-4-(2-pyridinylmethoxy)anilino]-3-cyano-7-ethoxy-6-quinolinyl}-4-(dimethylamino)-2-butenamide]",sensitivity of the cell line to the single agent,[1],highly sensitive
same,sensitivity of the cell line to the single agent,[2],less sensitive
same,sensitivity of the cell line to the single agent,[3],resistant
